# In ChEMBL document CHEMBL5126588, “Discovery of non-substrate, environmentally sensitive turn-on fluorescent probes for imaging HDAC8 in tumor cells and tissue slices” (Bioorg Med Chem, 2022):
# Activity calls are given as the source filed them. The calls are words filed in the database; no cut-off is given here.
# Experiments:
# [1] = target: T1, Histone deacetylase 8 (Homo sapiens) (UniProt Q9BY41); assay: Binding affinity to HDAC8 in human SH-SY5Y cells xenografted with BALB/c mouse assessed as increase in fluorescence intensity in tumor tissue at 20 uM after 30 mins by fluorescence imaging analysis
# T1 sequence (whole entry): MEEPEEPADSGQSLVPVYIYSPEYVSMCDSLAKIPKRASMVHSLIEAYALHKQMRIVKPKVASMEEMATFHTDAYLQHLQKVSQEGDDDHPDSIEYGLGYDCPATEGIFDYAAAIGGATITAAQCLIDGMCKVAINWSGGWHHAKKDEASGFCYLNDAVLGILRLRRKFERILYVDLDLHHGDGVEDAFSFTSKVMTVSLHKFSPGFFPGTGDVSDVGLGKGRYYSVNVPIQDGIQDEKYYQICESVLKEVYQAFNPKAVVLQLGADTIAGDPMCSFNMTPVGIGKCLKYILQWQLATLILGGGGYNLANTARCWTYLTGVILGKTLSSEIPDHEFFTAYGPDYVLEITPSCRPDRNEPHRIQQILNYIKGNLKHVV
# SH-SY5Y [2] = assay: Antiproliferative activity against human SH-SY5Y cells within 20 uM by MTT assay; format: toxicity, cell-based
# SH-SY5Y [3] = assay: Antiproliferative activity against human SH-SY5Y cells by MTT assay; format: functional, cell-based
# MDA-MB-231 [4] = assay: Antiproliferative activity against human MDA-MB-231 cells within 20 uM by MTT assay; format: toxicity, cell-based; settings: mda-mb-231, 20 µM
# [5] = target: T1, Histone deacetylase 8 (Homo sapiens); assay: Binding affinity to HDAC8 in human SH-SY5Y cells assessed as increase in fluorescence intensity at 10 uM after 30 mins by confocal fluorescence microscopic analysis; format: cell-based
# Histone deacetylase 8 = target: T2, Histone deacetylase 8 (Homo sapiens, UniProt Q9BY41); assay: Binding affinity to HDAC8 (unknown origin) by biolayer interferometry assay
# T2 sequence (Q9BY41 whole entry): T1 sequence (whole entry)
# [6] = target: T1, Histone deacetylase 8 (Homo sapiens); assay: Binding affinity to HDAC8 in human SH-SY5Y cells assessed as increase in fluorescence intensity at 5 to 10 uM incubated for 30 mins by flow cytometry analysis; format: cell-based; settings: dose 5-10 µM
# MDA-MB-231 [7] = assay: Antiproliferative activity against human MDA-MB-231 cells by MTT assay; format: functional, cell-based
# Histone deacetylase 1 = Histone deacetylase 1 (Homo sapiens, UniProt Q13547); assay: Binding affinity to HDAC1 (unknown origin) by biolayer interferometry assay
# [8] = target: T3, Protein deacetylase HDAC6 (Homo sapiens, UniProt Q9UBN7); assay: Binding affinity to HDAC6 (unknown origin) by biolayer interferometry assay
# T3 sequence (Q9UBN7 whole entry): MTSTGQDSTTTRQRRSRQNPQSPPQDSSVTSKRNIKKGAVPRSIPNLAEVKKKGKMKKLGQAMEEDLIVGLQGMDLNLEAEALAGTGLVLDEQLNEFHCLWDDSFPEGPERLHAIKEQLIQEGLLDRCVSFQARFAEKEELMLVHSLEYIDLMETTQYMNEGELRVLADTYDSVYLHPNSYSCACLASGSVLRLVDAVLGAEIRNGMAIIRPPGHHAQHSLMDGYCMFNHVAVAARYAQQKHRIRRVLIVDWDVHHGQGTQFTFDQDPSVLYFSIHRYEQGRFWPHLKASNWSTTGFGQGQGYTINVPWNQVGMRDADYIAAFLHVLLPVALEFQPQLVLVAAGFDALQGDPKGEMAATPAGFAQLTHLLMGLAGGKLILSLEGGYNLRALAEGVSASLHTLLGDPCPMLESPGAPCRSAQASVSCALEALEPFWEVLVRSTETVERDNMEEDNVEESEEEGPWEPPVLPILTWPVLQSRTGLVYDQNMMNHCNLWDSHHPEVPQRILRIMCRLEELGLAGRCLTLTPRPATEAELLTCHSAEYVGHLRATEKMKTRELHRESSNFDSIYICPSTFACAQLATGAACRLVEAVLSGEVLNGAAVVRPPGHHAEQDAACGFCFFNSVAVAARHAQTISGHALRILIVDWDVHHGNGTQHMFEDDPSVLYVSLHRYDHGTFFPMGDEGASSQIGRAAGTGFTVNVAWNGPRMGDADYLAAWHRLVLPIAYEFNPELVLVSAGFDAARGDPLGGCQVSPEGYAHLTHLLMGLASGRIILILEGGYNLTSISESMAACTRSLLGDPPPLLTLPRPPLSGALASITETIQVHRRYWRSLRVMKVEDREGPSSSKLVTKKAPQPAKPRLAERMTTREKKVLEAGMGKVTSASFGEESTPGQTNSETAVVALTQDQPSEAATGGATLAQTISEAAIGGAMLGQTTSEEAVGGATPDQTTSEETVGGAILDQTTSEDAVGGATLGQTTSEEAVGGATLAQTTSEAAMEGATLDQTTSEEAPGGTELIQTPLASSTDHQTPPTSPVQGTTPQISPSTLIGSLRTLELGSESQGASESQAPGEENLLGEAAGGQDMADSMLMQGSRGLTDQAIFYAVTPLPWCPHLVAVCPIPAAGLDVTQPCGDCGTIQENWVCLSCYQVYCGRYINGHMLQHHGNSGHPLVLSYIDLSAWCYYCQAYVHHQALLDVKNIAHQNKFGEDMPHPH
# Chain of Histone deacetylase 1 (Q13547 whole entry): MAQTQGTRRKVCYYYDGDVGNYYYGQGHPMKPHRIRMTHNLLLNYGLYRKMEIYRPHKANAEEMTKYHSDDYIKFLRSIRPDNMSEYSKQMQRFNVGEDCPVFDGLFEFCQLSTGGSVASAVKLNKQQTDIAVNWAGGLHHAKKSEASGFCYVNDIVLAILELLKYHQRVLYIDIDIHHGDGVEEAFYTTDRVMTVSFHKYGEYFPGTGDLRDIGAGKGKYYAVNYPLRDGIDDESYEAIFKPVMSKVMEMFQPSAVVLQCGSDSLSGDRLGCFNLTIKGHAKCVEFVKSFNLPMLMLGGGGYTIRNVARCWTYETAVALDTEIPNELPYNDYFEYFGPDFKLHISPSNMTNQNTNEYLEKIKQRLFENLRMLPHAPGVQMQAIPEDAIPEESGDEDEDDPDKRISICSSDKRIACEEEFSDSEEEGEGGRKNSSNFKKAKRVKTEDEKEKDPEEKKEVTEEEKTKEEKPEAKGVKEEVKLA
Activity [1],IC50 (SH-SY5Y [3]),Activity [5],Kd (Histone deacetylase 8),Activity [6],IC50 (MDA-MB-231 [7]),Kd (Histone deacetylase 1),Kd [8],Structure (SMILES),Activity (SH-SY5Y [2]),Activity (MDA-MB-231 [4])
Active,8.48 µM,Active,8.89 µM,Active,33 µM,79.4 µM,137 µM,COc1ccc(Cn2ccc3ccc(C(=O)NO)cc32)cc1C(=O)NCCCCNc1ccc(S(=O)(=O)N(C)C)c2nonc12,Non-Toxic,Non-Toxic
,2.38 µM,,,,16.1 µM,,,COc1ccc(Cn2ccc3ccc(C(=O)NO)cc32)cc1,,
,8.56 µM,,3.57 µM,,18 µM,20.6 µM,20.1 µM,COc1ccc(Cn2ccc3ccc(C(=O)NO)cc32)cc1C(=O)NCCCNc1ccc(S(=O)(=O)N(C)C)c2nonc12,,
,9.93 µM,,5.37 µM,,16.1 µM,16.2 µM,29.4 µM,COc1ccc(Cn2ccc3ccc(C(=O)NO)cc32)cc1C(=O)NCCNc1ccc(S(=O)(=O)N(C)C)c2nonc12,,
